Results on one substance are retold here after US20050004029A1, “Methods and compositions for treating vascular leak using hepatocyte growth factor” (priority 2001, published 2005).

The test system of one assay is Rac GTPase. The assay can be described thus: Rac GTPase activity, p21 Rac-binding domain assay. As to conditions: HGF 10 ng/mL or Sph-1-P 1 μM for 1 or 5 min. In kind it is cell-based.
Assay [1] deals with Bovine Pulmonary Artery Endothelium. The assay can be described thus: Transendothelial electrical resistance (TER) across bovine pulmonary artery endothelium. In kind it is cell-based. The following applies: VEGF 100 ng/ml, Sph 1-P 1 μM, HGF 20 ng/ml. The protocol:
Bovine pulmonary artery endothelial cells were purchased from the American Type Culture Collection (ATCC®, Rockville, Md.) and utilized at passage 19-24. Cells were maintained in Medium 199 (Life Technologies, Rockville, Md.) supplemented with 20% (v/v) colostrum-free bovine serum (CFBS) (Irvine Scientific, Santa Ana, Calif.), 15 μg/ml endothelial cell growth supplement (Upstate Biotechnology, Lake Placid, N.Y.), 1% antibiotic and antimycotic, and 0.1 mM non-essential amino acids (Life Technologies). Human pulmonary artery endothelial cells were purchased from Clonetics (Walkersville, Md.), cultured in EBM-2 complete medium (Clonetics) and utilized at passage 5-10. Human alveolar epithelial cells (A549) were purchased from ATCC® and cultured in the same medium as the bovine endothelial cells, except that the endothelial cell growth supplement was omitted. All cells were maintained at 37° C. in a humidified atmosphere of 5% CO2 and 95% air.
Electrical resistance of EC monolayers was measured using electrical cell impedance sensor system (Applied Biophysics Inc., Troy, N.Y.) as described in Garcia, J. G. N. et al. (2000) J. Appl. Physiol. 89:2333-2343. Cells grown on gold microelectrodes (10^−3 cm^2) in polycarbonate wells act as insulating particles, and the resistance across the monolayers (transendothelial electrical resistance, or TER) is measured in real time. As cells adhere on the microelectrode and intercellular cell contacts are formed or in response to agents which increase junctional integrity, the TER increases (Garcia, J. G. N. et al. (2001) J. Clin. Invest. 108:689-711). In contrast, cell retraction, rounding, or loss of adhesion is reflected by decreases in TER (Garcia, J. G. N. et al. (2000) J. Appl. Physiol. 89:2333-2343). These measurements provide a highly sensitive biophysical assay that indicates the state of cell shape, focal adhesion, and endothelial barrier function (Giaever, I. and Keese, C. R. (1993) Nature 366:591-592; Tiruppathi, C. et al. (1992) Proc. Natl. Acad. Sci. USA 89:7919-7923). All electrical resistance data are presented as normalized values. Briefly, current was applied across the electrodes by a 4000 Hz AC voltage source with an amplitude of 1 V in series with a 1 MΩ resistance to approximate a constant current source (−1 μA). The small gold electrode and the larger counter electrode (1 cm^2) were connected to a phase-sensitive lock-in amplifier (5301A; EG&G Instruments Corp, Princeton, N.J.) with a built in differential preamplifier (5316A; EG&G Instruments Corp.). The in-phase and out-of-phase voltages between the electrodes were monitored in real time with the lock-in amplifier and converted to scalar measurements of transendothelial impedance, of which resistance was the primary focus. […] For some experiments, total TER was vectorially resolved into components reflecting resistance to current flow beneath the cell layer (α) and resistance to current flow between adjacent cells (Rb) as described in Garcia et al. (2000) supra utilizing the method of Giaiver and Keese which models the endothelial monolayer mathematically (Giaever, I. and Keese, C. R. (1993) Nature 366:591-592). Thus, changes in α reflect alterations in the net state of cell-matrix adhesion, whereas changes in Rb reflect alterations in the integrity of cell-cell adhesion. TER values from each microelectrode were pooled at discrete time points and plotted versus time as the mean±standard error of the mean (Garcia et al. (2000) supra).

[2] abbreviates: vs vehicle control, ±SEM, thrombin 100 μM.

Experimental for Rac GTPase: Endothelial cells grown in 100 mm dishes were incubated with agonists in serum-free M199. Cells were lysed in 500 μl Mg^2+ lysis buffer (Upstate Biotechnology, Lake Placid, N.Y.) and homogenized by pipetting. After a brief centrifugation to remove the cell debris, 300 μl of supernatant was incubated with the agarose-conjugated p21-binding domain (PBD) of human PAK-1 (10 μg, 30 min, Upstate Biotechnology). The agarose beads were washed with 1 ml of lysis buffer 5 times and re-suspended in 30 μl of 2×SDS buffer. After 10 min centrifugation at 14,000 g, 15 μl of supernatant from each sample was subjected to electrophoresis in 15% PAGE. […] For total Rac protein measurement, 5 μl of the original cell lysates were used for electrophoresis and western analysis. […] Pulmonary artery endothelial cells were incubated with HGF (10 ng/mL) or Sph-1-P (1 μM) for 1 or 5 min. Cells were lysed, supernatants collected, and activated GTP-bound Rac was precipitated by agarose-conjugated human PAK-1 p21-binding domain and subsequently immunoblotted by anti-Rac mAb. Total Rac protein was detected using cell lysates.

For “HGF: heparin-binding glycoprotein, multifunctional cytokine, ligand of c-Met; purchased from R&D Systems”, in the assay with Rac GTPase, the Rac activity entry is “rapidly and transiently increases Rac activity”. Further, in assay [1] (thrombin, 10-60 min), the “TER response in words” value is “brisk and sustained increase in TER”. For the same substance, in assay [1] (setting [2]), the “changes in TER 30 min” value is recorded as “+35 ± 5%” and the “changes in TER 60 min” value was “+35 ± 4%”. For the same substance, the “changes in TER 10 min” value in assay [1] (vs vehicle control, ±SEM, thrombin 100 μM, (+) increased, (−) decreased) was “+25 ± 3%”.
